{"source": "patent US9598421B2", "about": "“Imidazopyridazine compounds” (Pfizer Inc., priority 2014, dated 2017)", "note": "Counter-ions that a name gives are not always drawn.", "data": [{"target": "Human PDE4D (Homo sapiens (Human), UniProt Q08499)", "sequence (Q08499 186-808)": "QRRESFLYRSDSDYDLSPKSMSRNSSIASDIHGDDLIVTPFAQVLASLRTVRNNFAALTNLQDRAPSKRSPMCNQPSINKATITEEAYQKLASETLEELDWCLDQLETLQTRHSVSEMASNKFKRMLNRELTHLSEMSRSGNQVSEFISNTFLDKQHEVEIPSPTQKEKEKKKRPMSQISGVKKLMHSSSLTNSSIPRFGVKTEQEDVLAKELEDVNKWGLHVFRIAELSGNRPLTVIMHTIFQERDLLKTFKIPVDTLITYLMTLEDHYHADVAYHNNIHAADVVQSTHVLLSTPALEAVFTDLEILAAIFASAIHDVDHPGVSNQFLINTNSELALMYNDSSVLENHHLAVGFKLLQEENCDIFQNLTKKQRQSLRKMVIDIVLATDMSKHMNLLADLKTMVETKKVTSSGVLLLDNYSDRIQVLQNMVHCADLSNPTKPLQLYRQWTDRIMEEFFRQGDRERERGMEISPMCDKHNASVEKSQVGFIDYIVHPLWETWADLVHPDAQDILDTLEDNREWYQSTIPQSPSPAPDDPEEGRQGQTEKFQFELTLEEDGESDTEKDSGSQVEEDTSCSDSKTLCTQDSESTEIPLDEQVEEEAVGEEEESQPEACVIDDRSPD", "test": "PDE4D Scintillation Proximity Assay (SPA), inhibition of enzyme activity", "format": "biochemical", "conditions": "human recombinant enzyme, 1 μM cAMP substrate, 30 min at 25° C., geometric mean of 2-9 determinations unless otherwise indicated, read-out: Human PDE4D FL", "units": {"IC50": "nM"}, "values": [{"smiles": "O=C(NC1CC1)c1nc2cccnn2c1-c1ccc(Cl)c(Cl)c1", "note": "[Example 11, N-cyclopropyl-3-(3,4-dichlorophenyl)imidazo[1,2-b]pyridazine-2-carboxamide]", "IC50": 334}, {"smiles": "O=C(c1nc2cccnn2c1-c1ccc2ncnn2c1)N1CCC1", "note": "[Example 16, azetidin-1-yl[3-([1,2,4]triazolo[1,5-a]pyridin-6-yl)imidazo[1,2-b]pyridazin-2-yl]methanone]", "IC50": "> 27500"}, {"smiles": "O=C(NC1CC1)c1nc2cccnn2c1-c1cnc2ccoc2c1", "note": "[Example 38, N-cyclopropyl-3-(furo[3,2-b]pyridin-6-yl)imidazo[1,2-b]pyridazine-2-carboxamide]", "IC50": 11200}, {"smiles": "O=C(c1nc2cccnn2c1-c1ccnc(C(F)(F)F)c1)N1CCC1", "note": "[Example 43, azetidin-1-yl{3-[2-(trifluoromethyl)pyridin-4-yl]imidazo[1,2-b]pyridazin-2-yl}methanone]", "IC50": "> 16900"}, {"smiles": "O=C(NC1CC1(F)F)c1nc2cccnn2c1-c1ccc(Cl)c(F)c1", "note": "(centres unmarked) [Example 44, 3-(4-chloro-3-fluorophenyl)-N-(2,2-difluorocyclopropyl)imidazo[1,2-b]pyridazine-2-carboxamide]", "IC50": 320}, {"smiles": "Cc1cc(-c2c(C(=O)N3CCC3)nc3cccnn23)ccc1Cl", "note": "[Example 51, azetidin-1-yl[3-(4-chloro-3-methylphenyl)imidazo[1,2-b]pyridazin-2-yl]methanone]", "IC50": 2810}, {"smiles": "Cc1ccc(Cl)cc1-c1c(C(=O)N2CCC2)nc2cccnn12", "note": "[Example 64, azetidin-1-yl[3-(5-chloro-2-methylphenyl)imidazo[1,2-b]pyridazin-2-yl]methanone]", "IC50": 844}, {"smiles": "O=C(c1nc2cccnn2c1-c1ccc(Cl)cc1Cl)N1CCC1", "note": "[Example 65, azetidin-1-yl[3-(2,4-dichlorophenyl)imidazo[1,2-b]pyridazin-2-yl]methanone]", "IC50": 3720}, {"smiles": "O=C(N[C@@H]1C[C@@H]1F)c1nc2cccnn2c1-c1cncc(Cl)c1", "note": "[Example 69, 3-(5-chloropyridin-3-yl)-N-[(1R,2S)-2-fluorocyclopropyl]imidazo[1,2-b]pyridazine-2-carboxamide]", "IC50": 3330}, {"smiles": "Cc1ccc(-c2c(C(=O)N[C@@H]3C[C@@H]3F)nc3cccnn23)c(F)c1", "note": "[Example 72, N-[(1R,2S)-2-fluorocyclopropyl]-3-(2-fluoro-4-methylphenyl)imidazo[1,2-b]pyridazine-2-carboxamide]", "IC50": 6590}, {"smiles": "O=C(c1nc2cccnn2c1-c1cnc2ccnn2c1)N1CCC1", "note": "[Example 74, azetidin-1-yl[3-(pyrazolo[1,5-a]pyrimidin-6-yl)imidazo[1,2-b]pyridazin-2-yl]methanone]", "IC50": 10500}, {"smiles": "O=C(NC1CC1)c1nc2cccnn2c1-c1cnc2ccnn2c1", "note": "[Example 78, N-cyclopropyl-3-(pyrazolo[1,5-a]pyrimidin-6-yl)imidazo[1,2-b]pyridazine-2-carboxamide]", "IC50": 6490}, {"smiles": "Cc1ccc(C#N)cc1-c1c(C(=O)NC2CC2)nc2cccnn12", "note": "[Example 80, 3-(5-cyano-2-methylphenyl)-N-cyclopropylimidazo[1,2-b]pyridazine-2-carboxamide]", "IC50": "> 25400"}, {"smiles": "CCNC(=O)c1nc2cccnn2c1-c1ccc(Cl)cc1C", "note": "[Example 95, 3-(4-chloro-2-methylphenyl)-N-ethylimidazo[1,2-b]pyridazine-2-carboxamide]", "IC50": 14800}, {"smiles": "CC(C)NC(=O)c1nc2cccnn2c1-c1cc(F)c(Cl)cc1F", "note": "[Example 100, 3-(4-chloro-2,5-difluorophenyl)-N-(propan-2-yl)imidazo[1,2-b]pyridazine-2-carboxamide]", "IC50": 766}]}, {"target": "Human PDE4D (Homo sapiens (Human), UniProt Q08499)", "test": "PDE4D Scintillation Proximity Assay (SPA), inhibition of enzyme activity", "format": "biochemical", "conditions": "read-out: Human PDE4D FL", "units": {"IC50": "nM"}, "values": [{"smiles": "O=C(NCCc1ccccc1O)c1nc2cccnn2c1-c1ccc(Cl)cc1", "note": "[Example 57, 3-(4-chlorophenyl)-N-[2-(2-hydroxyphenyl)ethyl]imidazo[1,2-b]pyridazine-2-carboxamide, formate salt]", "IC50": "> 21800"}, {"smiles": "Cc1cc(NC(=O)c2nc3cccnn3c2-c2ccc(Cl)cc2)no1", "note": "[Example 58, 3-(4-chlorophenyl)-N-(5-methyl-1,2-oxazol-3-yl)imidazo[1,2-b]pyridazine-2-carboxamide, trifluoroacetate salt]", "IC50": 831}, {"smiles": "Cn1ncc(NC(=O)c2nc3cccnn3c2-c2ccc(Cl)cc2)n1", "note": "[Example 59, 3-(4-chlorophenyl)-N-(2-methyl-2H-1,2,3-triazol-4-yl)imidazo[1,2-b]pyridazine-2-carboxamide, trifluoroacetate salt]", "IC50": 749}, {"smiles": "O=C(c1nc2cccnn2c1-c1ccc2nccnc2c1)N1CCC1", "note": "[Example 62, azetidin-1-yl[3-(quinoxalin-6-yl)imidazo[1,2-b]pyridazin-2-yl]methanone, formate salt]", "IC50": 11000}, {"smiles": "CC(=O)c1ccc(F)c(-c2c(C(=O)N3CCC3)nc3cccnn23)c1", "note": "[Example 63, 1-[3-[2-(azetidin-1-ylcarbonyl)imidazo[1,2-b]pyridazin-3-yl]-4-fluorophenyl]ethanone, formate salt]", "IC50": 394}, {"smiles": "Cc1ccc(-c2c(C(=O)N3CCC3)nc3cccnn23)c(C)c1Cl", "note": "[Example 66, azetidin-1-yl[3-(3-chloro-2,4-dimethylphenyl)imidazo[1,2-b]pyridazin-2-yl]methanone, formate salt]", "IC50": 3390}, {"smiles": "O=C(c1nc2cccnn2c1-c1ccc2c(c1)OCCO2)N1CCC1", "note": "[Example 67, azetidin-1-yl[3-(2,3-dihydro-1,4-benzodioxin-6-yl)imidazo[1,2-b]pyridazin-2-yl]methanone, formate salt]", "IC50": 2260}]}, {"target": "Human PDE4A (Homo sapiens (Human), UniProt P27815)", "sequence (P27815 other isoform, or with tags, fused parts or gaps)": "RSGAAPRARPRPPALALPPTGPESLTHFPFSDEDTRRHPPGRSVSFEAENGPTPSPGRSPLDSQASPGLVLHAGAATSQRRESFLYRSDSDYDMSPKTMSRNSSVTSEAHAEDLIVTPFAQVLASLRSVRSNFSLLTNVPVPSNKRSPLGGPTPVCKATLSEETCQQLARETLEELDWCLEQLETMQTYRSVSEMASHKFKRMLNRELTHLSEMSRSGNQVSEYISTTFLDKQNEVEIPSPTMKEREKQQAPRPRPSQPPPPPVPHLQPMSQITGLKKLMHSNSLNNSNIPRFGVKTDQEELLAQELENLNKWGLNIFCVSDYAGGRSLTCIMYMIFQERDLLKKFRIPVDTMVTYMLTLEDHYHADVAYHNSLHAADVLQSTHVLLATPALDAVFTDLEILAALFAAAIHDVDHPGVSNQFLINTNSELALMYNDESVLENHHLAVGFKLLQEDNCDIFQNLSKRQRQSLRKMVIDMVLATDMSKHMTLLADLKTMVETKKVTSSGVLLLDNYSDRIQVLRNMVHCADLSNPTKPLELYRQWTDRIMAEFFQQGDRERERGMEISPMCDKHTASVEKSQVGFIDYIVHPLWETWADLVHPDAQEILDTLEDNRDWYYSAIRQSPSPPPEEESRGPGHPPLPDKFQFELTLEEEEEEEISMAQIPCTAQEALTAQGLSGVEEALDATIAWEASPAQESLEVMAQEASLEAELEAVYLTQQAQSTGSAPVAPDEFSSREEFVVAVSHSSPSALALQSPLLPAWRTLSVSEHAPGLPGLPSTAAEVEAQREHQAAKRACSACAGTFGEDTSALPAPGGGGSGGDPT", "test": "PDE4A Scintillation Proximity Assay (SPA), inhibition of enzyme activity", "format": "biochemical", "conditions": "human recombinant enzyme, 1 μM cAMP substrate, 30 min at 25° C., geometric mean of 2-9 determinations unless otherwise indicated, read-out: Human PDE4A FL", "units": {"IC50": "nM"}, "protocol": "The PDE4A3, PDE4B1, PDE4C1 and PDE4D3 assays use the Scintillation Proximity Assay (SPA) technology to measure the inhibition of human recombinant PDE4A1, PDE4B3, PDE4C1, and PDE4D3 enzyme activity by compounds in vitro. The PDE4A1, PDE4B3, PDE4C1, and PDE4D3 assays are run in parallel using identical parameters, except for the concentration of enzyme (80 pM PDE4A3, 40 pM PDE4B3, 40 pM PDE4C1 and 10 pM PDE4D). […] Reactions are incubated for 30 min at 25° C. The addition of 20 uL of 8 mg/ml yitrium silicate SPA beads (Perkin Elmer) stops the reaction. The plates are sealed (TopSeal, Perkin Elmer) and the beads are allowed to settle for 8 hrs, after which they are read on the Trilux Microbeta overnight.", "values": [{"smiles": "O=C(NC1CC1)c1nc2cccnn2c1-c1ccc2ncnn2c1", "note": "[Example 6, N-Cyclopropyl-3-([1,2,4]triazolo[1,5-a]pyridin-6-yl)imidazo[1,2-b]pyridazine-2-carboxamide]", "IC50": 64.4}, {"smiles": "O=C(c1nc2cccnn2c1-c1cncc(Cl)c1)N1CCC1", "note": "[Example 15, azetidin-1-yl[3-(5-chloropyridin-3-yl)imidazo[1,2-b]pyridazin-2-yl]methanone]", "IC50": 264}, {"smiles": "Cc1cc(-c2c(C(=O)NC3CC3)nc3cccnn23)c(F)cc1C#N", "note": "[Example 17, 3-(4-cyano-2-fluoro-5-methylphenyl)-N-cyclopropylimidazo[1,2-b]pyridazine-2-carboxamide]", "IC50": 89.9}, {"smiles": "Cc1cc(C#N)c(F)cc1-c1c(C(=O)NC2CC2)nc2cccnn12", "note": "[Example 19, 3-(4-cyano-5-fluoro-2-methylphenyl)-N-cyclopropylimidazo[1,2-b]pyridazine-2-carboxamide]", "IC50": 16.9}, {"smiles": "CN(C(=O)c1nc2cccnn2c1-c1ccc(Cl)c(F)c1)C1CC1", "note": "[Example 21, 3-(4-chloro-3-fluorophenyl)-N-cyclopropyl-N-methylimidazo[1,2-b]pyridazine-2-carboxamide]", "IC50": 53.7}, {"smiles": "CCCNC(=O)c1nc2cccnn2c1-c1cc(F)cc(Cl)c1", "note": "[Example 34, 3-(3-chloro-5-fluorophenyl)-N-propylimidazo[1,2-b]pyridazine-2-carboxamide]", "IC50": 29.5}, {"smiles": "Cc1ccc(-c2c(C(=O)NC3CC3)nc3cccnn23)cc1F", "note": "[Example 41, N-cyclopropyl-3-(3-fluoro-4-methylphenyl)imidazo[1,2-b]pyridazine-2-carboxamide]", "IC50": 3.13}, {"smiles": "O=C(N[C@@H]1C[C@@H]1F)c1nc2cccnn2c1-c1ccc(Cl)c(F)c1", "note": "[Example 45, 3-(4-chloro-3-fluorophenyl)-N-[(1R,2S)-2-fluorocyclopropyl]imidazo[1,2-b]pyridazine-2-carboxamide]", "IC50": 2.91}, {"smiles": "Cc1ccc(-c2c(C(=O)N3CCC3)nc3cccnn23)cc1Cl", "note": "[Example 49, azetidin-1-yl[3-(3-chloro-4-methylphenyl)imidazo[1,2-b]pyridazin-2-yl]methanone]", "IC50": 4.16}, {"smiles": "Cc1cc(Cl)ccc1-c1c(C(=O)N2CCC2)nc2cccnn12", "note": "[Example 56, azetidin-1-yl[3-(4-chloro-2-methylphenyl)imidazo[1,2-b]pyridazin-2-yl]methanone]", "IC50": 22.7}, {"smiles": "COc1ccc(-c2c(C(=O)N3CCC3)nc3cccnn23)c(F)c1", "note": "[Example 73, azetidin-1-yl[3-(2-fluoro-4-methoxyphenyl)imidazo[1,2-b]pyridazin-2-yl]methanone]", "IC50": 165}, {"smiles": "CCNC(=O)c1nc2cccnn2c1-c1ccc(Cl)c(F)c1", "note": "[Example 81, 3-(4-chloro-3-fluorophenyl)-N-ethylimidazo[1,2-b]pyridazine-2-carboxamide]", "IC50": 7.86}, {"smiles": "O=C(Nc1cn[nH]c1)c1nc2cccnn2c1-c1ccc(Cl)c(F)c1", "note": "[Example 82, 3-(4-chloro-3-fluorophenyl)-N-(1H-pyrazol-4-yl)imidazo[1,2-b]pyridazine-2-carboxamide]", "IC50": 12}, {"smiles": "O=C(c1nc2cccnn2c1-c1cccc(Cl)c1)N1CCC1", "note": "[Example 84, azetidin-1-yl[3-(3-chlorophenyl)imidazo[1,2-b]pyridazin-2-yl]methanone]", "IC50": 16.7}, {"smiles": "O=C(c1nc2cccnn2c1-c1ccc2c(c1)OC(F)(F)O2)N1CCC1", "note": "[Example 86, azetidin-1-yl[3-(2,2-difluoro-1,3-benzodioxol-5-yl)imidazo[1,2-b]pyridazin-2-yl]methanone]", "IC50": 5.83}, {"smiles": "O=C(c1nc2cccnn2c1-c1cc(F)c(Cl)cc1F)N1CCC1", "note": "[Example 91, azetidin-1-yl[3-(4-chloro-2,5-difluorophenyl)imidazo[1,2-b]pyridazin-2-yl]methanone]", "IC50": 12.6}, {"smiles": "Cc1cc(Cl)c(F)cc1-c1c(C(=O)NC(C)C)nc2cccnn12", "note": "[Example 97, 3-(4-chloro-5-fluoro-2-methylphenyl)-N-(propan-2-yl)imidazo[1,2-b]pyridazine-2-carboxamide]", "IC50": 5.48}, {"smiles": "Cc1cc(C#N)c(F)cc1-c1c(C(=O)NC(C)C)nc2cccnn12", "note": "[Example 99, 3-(4-cyano-5-fluoro-2-methylphenyl)-N-(propan-2-yl)imidazo[1,2-b]pyridazine-2-carboxamide]", "IC50": 19.8}, {"smiles": "O=C(Nc1ccn[nH]1)c1nc2cccnn2c1-c1ccc(Cl)cc1", "note": "[Example 103, 3-(4-chlorophenyl)-N-(1H-pyrazol-5-yl)imidazo[1,2-b]pyridazine-2-carboxamide]", "IC50": 62.7}]}]}
